The source of these data is PubChem BioAssay (NCI).

Common to all, as to assay: NCI-60 cell line screen, 48 h
In test [1] the test system is SF-539 CNS.
For test [2], the system named is UACC-257 melanoma.
The subject of test [3] is RPMI-8226 leukemia.
Test [4] concerns HCC-2998 colon.
Test [5] concerns SF-295 CNS.
Test [6] has as its system SK-OV-3 ovarian.
Test [7] relates to 786-0 renal.
The subject of test [8] is NCI-H460 lung.
Test [9] deals with NCI-H226 lung.
Test [10] deals with TK-10 renal.

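Cells were grown in 96-well plates and exposed to each compound for 48 hours at five concentrations; endpoints were interpolated linearly between bracketing concentrations, or set to the highest concentration if not reached. Abbreviation: GI50, concentration required for 50% inhibition of growth. TGI marks complete inhibition of growth.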

On to `C1CCN2CC3CCCN4CCCC(C2C1)C34` (centres undefined), for which the TGI in [1], in test [2], in test [3], in test [4], in [5] and in [6] was more than 100 µM throughout. The TGI in test [7], in [8], in test [9] and in [10] was more than 100 µM in each case.
On to `C#CCN(N=O)C(=O)NCCCC(NC(C)=O)C(=O)NCc1ccccc1` (centres undefined), for which the TGI in [1], in test [2], in test [3], in test [4], in test [5] and in [6] was more than 100 µM throughout. Moreover, the TGI in test [7], in test [8], in test [9] and in [10] was more than 100 µM in each case.
Consider `CSc1ccc(C2=NN(C(C)=O)C(c3ccc(F)cc3)C2)cc1` (centres undefined), for which the GI50 is 17.5 µM in test [1]; 22.4 µM in [2]; 12 µM in [3]; 20.4 µM in test [4]; 16.4 µM in test [5]; 23 µM in [6]. Moreover, the GI50 is 15.6 µM in test [7], 15.9 µM in [8], 13.7 µM in test [9] and 19.8 µM in [10]. Moreover, the TGI in [1] came to 35.4 µM; in test [2] it was 45 µM; in test [3] it was 32.5 µM; in test [4] it was 49.8 µM; in [5], 36.2 µM; in test [6], 67.7 µM. The TGI worked out at 35.7 µM in test [7], 50.7 µM in test [8], 31.5 µM in test [9] and 63.7 µM in test [10].
For `O=C(O)CC1CC=C[C@H]2c3cc4c(cc3C(=O)NC12)OCO4` (some centres undefined), the TGI in test [1], in test [2], in test [3], in test [4], in [5] and in [6] was more than 75 µM each time. Besides, the TGI in test [7], in [8], in [9] and in test [10] was more than 75 µM throughout.
For `COCOCC[C@@H]1CC=CC(NC(=O)OCc2ccccc2)C1/C=C/C(=O)CCC1OCCO1` (some centres undefined), the TGI in [1] was more than 63 µM; in test [2], 66.3 µM; in test [3], 63.5 µM; in test [4], more than 100 µM; in test [5] it was more than 100 µM; in test [6], more than 100 µM. Further, the TGI in test [7], in test [8], in [9] and in test [10] was more than 100 µM in each case.
In the case of `COc1cc(-c2ccc(NC(=O)NC3CC3)c(OC)c2)ccc1NC(=O)NC1CC1`, the GI50 in test [1] is 4.86 µM; in test [2] it was 12.4 µM; in test [3], 2.47 µM; in test [4] it was 28 µM; in test [5] it was 4.36 µM; in test [6], 23.8 µM. Moreover, the GI50 is 29.5 µM in test [7], 1.51 µM in test [8], 7.25 µM in test [9] and 13.9 µM in test [10]. The TGI in test [1] was 99.8 µM; in test [2], more than 100 µM; in test [3] it was more than 24.7 µM; in test [4], more than 100 µM; in test [5], more than 100 µM; in test [6] it was more than 100 µM. The TGI in test [7] is more than 100 µM; in [8], 15.7 µM; in [9], more than 100 µM; in [10], more than 100 µM.
In the case of `CC(O)CN1c2ccccc2Sc2ccc(Cl)cc21` (centres undefined), the TGI in test [1], in test [2], in [3], in [4], in test [5] and in test [6] was more than 10 µM in each case. In addition, the TGI in test [7], in [8], in test [9] and in test [10] was more than 10 µM in each case.
Turning to `COC(=O)C(=O)C(C(=O)C(=O)Nc1ccc(C)cc1)c1nc2ccc(C(=O)c3ccccc3)cc2[nH]c1=O` (centres undefined), the TGI in test [1], in test [2], in test [3], in test [4], in test [5] and in [6] was more than 100 µM each time. For the same compound, the TGI in test [7], in test [8], in test [9] and in test [10] was more than 100 µM each time.
As to `O=c1c(-c2ccc(O)cc2)coc2cc(OC3OC(CO)C(O)C(O)C3O)cc(O)c12` (centres undefined), the TGI in test [1], in test [2], in test [3], in test [4], in [5] and in test [6] was more than 100 µM throughout. Moreover, the TGI in [7], in [8], in [9] and in test [10] was more than 100 µM each time. The GI50 in [3] was more than 10 µM; in [6], more than 100 µM; in test [7], more than 10 µM; in test [8], more than 10 µM.
As to `CN(O)C(=S)c1ccccc1`, the TGI in [1] is 63.1 µM; in test [2] it was 57.8 µM; in test [3], 1.68 µM; in [4], 44 µM; in [5], 35.9 µM; in [6], more than 95.5 µM. Moreover, the TGI was 14.3 µM in test [7], 18.3 µM in test [8], more than 100 µM in [9] and more than 100 µM in test [10].
Turning to `CCCCCCN(C)Cc1ccc(OCCOc2ccc(CN(C)CCCCCC)cc2)cc1`, the GI50 in test [1] is 1.37 µM; in [2] it was 0.448 µM; in test [3] it was 1.62 µM; in [4], 0.491 µM; in [5], 1.23 µM; in [6], 1.64 µM. Also, the GI50 in [7] was 1.44 µM; in test [8], 1.35 µM; in test [9] it was 1.53 µM; in test [10], 1.29 µM. Besides, the TGI is 2.92 µM in [1]; 1.84 µM in test [2]; 25.4 µM in test [3]; 1.81 µM in test [4]; 2.76 µM in test [5]; 3.09 µM in [6]. Besides, the TGI was 2.8 µM in test [7], 2.99 µM in test [8], 3.19 µM in [9] and 2.6 µM in test [10].
